Test results: patent publication US20260284011A1, “COMPOUNDS FOR RESTORING SUSCEPTIBILITY TO BETA-LACTAM ANTIBIOTICS” (UNIVERSITY OF NOTRE DAME DU LAC, priority 2023, published 2026)

Experiments:
[1] = test system: S. aureus NRS144pCN52RI-Venus; experiment: Bacterial growth inhibition (OD600) in the fluorescent screening assay; assay type: cell-based, Staphylococcus aureus; conditions: compound at 100 mg/L^−1; OD600 after 2 h
Method: (§1) The collection of the 100 compounds from the in-silico search was screened against S. aureus NRS144pCN52RI-Venus. The screening strategy was as follows. Bacteria grown to OD600 of 0.25 were exposed concurrently to CBAP (10 mg·L^−1) and the test compound (100 mg·L^−1). Fluorescence was recorded after two hours of incubation. OD600 values were also recorded to identify compounds with inherent antibacterial activity. Compound 1 (Chart 1) emerged—82% diminished fluorescence as an indication of the extent of BlaR inhibition—as a suitable template for structure elaboration. This effort led to the synthesis of several dozen benzimidazole and imidazole compounds. The progression of the iterative design is depicted in Chart 1 for four compounds, culminating in 4. […] The X-ray structures for the complexes of compounds 2 (non-covalent) and 4 (covalent) with the BlaR sensor domain are shown respectively in FIG. 2b (2.0 Å resolution) and FIG. 2c (1.97 Å resolution). Compound 4 makes a covalent bond with the catalytic Ser389 and creates a network of hydrogen bonds with the BlaR active site (FIG. 2c).
(§2) Fluorescent assay for screening of BlaR potential inhibitors. A 3-mL portion of lysogeny broth (LB) medium was inoculated with NRS144pCN52RI Venus from frozen stocks and grown overnight at 37° C. The overnight culture was then diluted 1:150 fold with fresh LB containing […] of erythromycin and incubated at 37° C. to an OD600 of 0.3, at which point fluorescence was induced by the addition of CBAP to a final concentration of 10 μg·mL^−1. The culture was aliquoted (99 L) into 96-well plate and 1 L of inhibitor solution (1 mg·mL^−1 in DMSO) was added to each well. Negative control (DMSO without CBAP) and positive control (CBAP without inhibitor) were included. The plate was incubated at 30° C. for 2 h with intermittent shaking. Fluorescence and OD600 measurements were taken by a Cytation-5 multimode microplate reader. Percent inhibition of BlaR and bacterial growth were calculated using absorbance unit (AU) and OD600 values of each sample entered into this formula: […]

BlaR = BlaR (Staphylococcus aureus, UniProt P18357); experiment: Live-cell fluorescent assay for BlaR inhibition (Venus reporter); assay type: cell-based, S. aureus NRS144pCN52RI-Venus; conditions: compound at 100 mg/L^−1; CBAP 10 mg·L^−1; fluorescence after 2 h
Excerpt: Live-Cell Fluorescent Assay in Discovery and Mechanism of Action. We conceived of fluorescent constructs in the bla operon, for the purpose of screening (FIG. 2a). We removed the gene for the β-lactamase (blaZ) and put in its place individually the genes for the Green Fluorescent Protein (GFP), Venus (a yellow-fluorescent protein) or mCherry (a red-fluorescent protein) in the template plasmid pCN52. The three plasmids were named pCN52RI, pCN52RI-Venus and pCN52RI-mCherry, respectively. The genes for the fluorescent proteins were transcribed under the promoter of the blaZ gene and were regulated by the proteins BlaR and BlaI, as is the case for the wild-type bla operon.
We transformed separately S. aureus NRS144—a laboratory strain that accepts a foreign gene and harbors neither the bla nor the mec operons—with each of these plasmids. […] When induced, the fluorescent protein is produced and is detected (akin to expression of the resistance genes blaZ or mecA in typical MSSA and MRSA). […] The transformed strains were grown in tryptic soy broth medium for overnight culture and strain maintenance and incubated in cation-adjusted Mueller-Hinton broth medium for inhibitor screening in a 96-well microplate format. The culture without CBAP addition was the negative control. In order to select a desirable reporter construct, we compared the intensity of the fluorescence produced from each construct at the wavelengths given in FIG. 2a using the Cytation-5 multi-mode microplate reader. Among the three constructs, pCN52RI-Venus produced the best fluorescence intensity and pCN52RI-mCherry was the second best (FIG. 4).
as §1, §2

Sequence of BlaR (P18357 whole entry): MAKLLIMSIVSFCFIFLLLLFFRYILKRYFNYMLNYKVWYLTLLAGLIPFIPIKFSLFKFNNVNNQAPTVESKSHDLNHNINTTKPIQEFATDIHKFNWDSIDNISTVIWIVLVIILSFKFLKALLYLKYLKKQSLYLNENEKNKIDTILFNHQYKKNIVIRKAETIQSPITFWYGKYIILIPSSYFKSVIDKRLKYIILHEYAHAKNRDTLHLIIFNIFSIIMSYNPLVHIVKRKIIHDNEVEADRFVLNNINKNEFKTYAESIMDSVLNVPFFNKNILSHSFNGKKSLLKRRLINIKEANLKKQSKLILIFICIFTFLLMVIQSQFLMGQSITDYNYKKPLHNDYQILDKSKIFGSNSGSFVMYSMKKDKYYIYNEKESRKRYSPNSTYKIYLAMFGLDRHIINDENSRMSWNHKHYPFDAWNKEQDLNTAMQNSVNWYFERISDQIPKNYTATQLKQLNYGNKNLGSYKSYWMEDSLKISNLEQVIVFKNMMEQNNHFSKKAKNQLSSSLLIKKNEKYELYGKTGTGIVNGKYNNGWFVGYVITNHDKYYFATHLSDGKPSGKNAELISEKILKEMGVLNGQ

Row | SMILES | % Inhibition of bacterial growth [1] | % Inhibition of BlaR (BlaR)
1 | O=C(/C=C/c1ccc(F)cc1)NCc1ccc2nc(S(=O)(=O)O)n(Cc3ccc(C(F)(F)F)cc3C(F)(F)F)c2c1 [Compound 24] | 24, R^4 = F, R^5 = H, X = SO3H, 100; 100% | –
2 | O=C(/C=C/c1ccc(Cl)cc1Cl)NCc1ccc2nc(S)n(Cc3ccc(C(F)(F)F)cc3C(F)(F)F)c2c1 [Compound 25] | 50% | 75%
3 | O=C(/C=C/c1ccc(F)cc1)NCc1ccc2nc(S(=O)(=O)O)n(Cc3ccc(C(F)(F)F)cc3C(F)(F)F)c2c1 [Compound 26] | 100% | 99%
4 | O=C(/C=C/c1ccc(C(F)(F)F)cc1F)NCc1ccc2nc(S)n(Cc3ccc(C(F)(F)F)cc3C(F)(F)F)c2c1 [Compound 27] | 55% | 79%
5 | O=C(/C=C/c1ccc(C(F)(F)F)cc1F)NCc1ccc2nc(S(=O)(=O)O)n(Cc3ccc(C(F)(F)F)cc3C(F)(F)F)c2c1 [Compound 28] | 100% | 92%
6 | O=C(CCc1ccc(F)cc1)NCc1ccc2nc(S)n(Cc3ccc(C(F)(F)F)cc3C(F)(F)F)c2c1 [Compound 29] | 0% | 59%
7 | O=C(CCc1ccc(F)cc1)NCc1ccc2nc(S(=O)(=O)O)n(Cc3ccc(C(F)(F)F)cc3C(F)(F)F)c2c1 [Compound 30] | 0% | 86%
8 | C[N+]12CC(=O)O[B-]1(CSc1nc3ccccc3n1Cc1ccc(C(F)(F)F)cc1C(F)(F)F)OC(=O)C2 (stereo not drawn) [Compound 31, (T-4)-[N-[(Carboxy-κO)methyl]-N-methylglycinato(2-)-κN,κO][[N^1-[[2,4-bis(trifluoromethyl)phenyl]methyl]-1H-benzimidazole-1-yl]thiomethyl]boron] | 13% | –
9 | C[N+]12CC(=O)O[B-]1(CSc1nc3ccc(C#N)cc3n1Cc1ccc(C(F)(F)F)cc1C(F)(F)F)OC(=O)C2 (stereo not drawn) [Compound 32] | 20% | 93%
10 | COC(=O)c1ccc2nc(SCB(O)O)n(Cc3ccc(C(F)(F)F)cc3C(F)(F)F)c2c1 [Compound 33] | 13% | 95%
11 | O=C(O)c1ccc2nc(SCB(O)O)n(Cc3ccc(C(F)(F)F)cc3C(F)(F)F)c2c1 [Compound 34] | 18% | 92%
12 | COC(=O)c1ccc2nc(SC[B-]34OC(=O)C[N+]3(C)CC(=O)O4)n(Cc3ccc(C(F)(F)F)cc3C(F)(F)F)c2c1 (stereo not drawn) [Compound 35] | 33% | 98%
13 | N#CCCSc1nc2ccc(C#N)cc2n1Cc1ccc(C(F)(F)F)cc1C(F)(F)F [Compound 36] | 40% | 90%
14 | COC(=O)c1ccc2nc(SCCC#N)n(Cc3ccc(C(F)(F)F)cc3C(F)(F)F)c2c1 [Compound 38] | 16% | 89%
15 | COC(=O)c1ccc2nc(SCCCC#N)n(Cc3ccc(C(F)(F)F)cc3C(F)(F)F)c2c1 [Compound 39] | 25% | 92%
16 | OCc1nc2ccccc2n1Cc1ccc(C(F)(F)F)cc1C(F)(F)F [Compound 40] | 25% | 67%
17 | FC(F)(F)c1ccc(Cn2c(CBr)nc3ccccc32)c(C(F)(F)F)c1 [Compound 41] | 36% | 78%
18 | OCCc1nc2ccccc2n1Cc1ccc(C(F)(F)F)cc1C(F)(F)F [Compound 44] | 40% | –
19 | CC(C)(C)OC(=O)NCc1cn(Cc2ccc(C(F)(F)F)cc2C(F)(F)F)c(=S)[nH]1 [Compound 47] | 0% | –
20 | NS(=O)(=O)c1nc([C@H](O)[C@H](O)CO)cn1Cc1ccccc1 [Compound 53] | 49% | –
21 | O=S(=O)(F)c1nc(CO)cn1Cc1ccc(C(F)(F)F)cc1C(F)(F)F [Compound 59] | 83% | –
